Measured values published in publication PMC10359466, “Identification of a small-molecule inhibitor that selectively blocks DNA-binding by Trypanosoma brucei replication protein A1” (Nature Communications, 2023).
“Also recorded” adds a separate entry of the source.

Columns and labels:
[1] = system: human non-small cell lung cancer H460 cells; settings: read-out: IC50, inhibition of proliferation; cited from earlier work
T. brucei cells = experiment: AlamarBlue cell viability / growth inhibition of T. brucei; settings: 10 to 60 μM, even at 60 µM, 72 h
Protocol: Synergy H1 microplate reader (BioTek) was used with 560/590 nm (excitation/emission) filter settings and relative fluorescence unit (RFU) values were obtained. The percentage of viable cells were calculated from the RFU values.
Trypanosome cells were seeded at 1 × 10^3 cells/ml density in 180 µl in a 96-well culture plate in triplicate. […] DMSO was used as a vehicle control at 0.0075%.

Structure (SMILES): CCOc1ccc2cc(C3CC(c4ccc(Br)cc4)=NN3C(=O)CCC(=O)O)c(Cl)nc2c1 (centres unmarked) [TDRL-505, reference compound]
- IC50 [1]: 30.8 µM
- Effect on T. brucei proliferation (T. brucei cells): did not observe any effect; also recorded: did not show any toxicity
